“Also recorded” adds a separate entry of the source. Starred links: 1 amine or outer side, 2 acyl side, 3 side chain; linkers in the order of their positions; H or OH if unused. Residues, ends and D or L forms follow the SMILES beside them. *: point of attachment. AFC = O=c1cc(C(F)(F)F)c2ccc(N*)cc2o1; Morpholide = C1CN(*)CCO1; Cbz = O=C(OCc1ccccc1)*; CO = O=C([*:1])[*:2]; CH2F = FC*
What was measured:
[1] = test system: Taenia crassiceps cysts; experiment: Short-term prophylactic protection of BALB/c mice from cysticercosis infection; type: in vivo; details: pre-injected two days, 10 T. crassiceps cysts/mouse, dosed daily four weeks, intraperitoneal; vs untreated controls
Experimental: FIG. 8. […] Each treated mouse was pre-injected intraperitoneally with inhibitor for two days. During treatment phase, each treated mouse received 1.48×10^−2 μg/μl of N2 daily for three weeks and every other day during the last week. Injections were carried out in 150 μl of dimethyl sulfoxide for each mouse. Both treated groups and positive controls were challenged intraperitoneally with 10 Taenia crassiceps cysts in 200 μl 0.15M PBS at the time of initial infection. After one month of infection, both groups were euthanized and cysts removed by washing with sterile 0.15M PBS. A minimum of two attached cysts were scored as multilobed (ML). […] (B) Graphically represents the effect of protease inhibitor treatment of BALB/c mice challenged with Taenia crassiceps cysts over a long-term period. Mice were divided into treated and untreated groups (5 mice/group).Each mouse in the treated group was pre-injected intraperitoneally with inhibitor for two days. […] Cysts were then counted by visual inspection. […]
Based upon the premise that the cyst wall cysteine protease may serve a critical finction to the life cycle of the Taenia cyst, we tested our most efficacious inhibitors, LLL-FMK and LLY-FMK (K-Pyr was used as a control), for their abilities to protect mice from cysticercosis infection. […] After one month, the mice were euthanized and the cysts counted. […]

[2] = test system: T crassiceps cysts; experiment: Therapeutic study in BALB/c mice infected with T crassiceps cysts; type: in vivo, Taenia crassiceps; details: inhibitor treatment began two weeks after infection
From the text: Mice in all groups survived without noticeable side effects (e.g., coat condition, tail dragging or paresis, etc).

[3] = test system: purified Taenia solium cysteine protease; experiment: Screen of AFC-linked synthetic substrates for cleavage (Step II); type: biochemical; details: pH 4.9, 18 h, 37° C
Experimental: In this step, the most efficacious substrate for detection of the cysteine protease (high Kcat substrate) was determined in vitro along with those substrates which were not well cleaved (low kcat substrates). From this point forth, the following conditions refer to all assays: “assay buffer” refers to 0.4 M Citrate, pH 4.9 (the pH optima of the protease). Incubation time was 18 hours at 37° C. These conditions were determined by our preliminary data to be best for kinetic evaluation of the protease. […] The experiments were conducted in […] Borosilicate mini-culture tubes (Fisher Scientific), and a fluorometer (Turner) was employed for detection of AFC cleavage.
Approximately 1 ug (or a proteolytically detectable amount) of the purified target cysteine protease was incubated individually, with 1 μg of each of the available substrates in 500 μL of assay buffer. During this setup, the substrate was pre-incubated in the assay buffer for a short period of time (20 minutes) in order to reach an equilibrated status before the addition of the protease. Cleavage assessments were based upon the property of the protease to cleave synthetic peptide substrates linked at the C-terminus to 7-Amino-4-Trifluoromethyl Coumarin (AFC) as previously described. AFC linked tripeptides, dipeptides, and monopeptides, (with a variety of permutations at P3-P1) were available from Enzyme Systems Products (Livermore, CA), and were used as the source of the subset. Following incubation of enzyme preparations overnight (18 h, 37 ° C.) with peptide in assay buffer (Citrate, pH 4.9, supplemented with 0.01 M cysteine), free AFC concentrations were measured fluorometrically (excitation […]). The proteolytic cleavage released the AFC group, which was measurable as a free molecule by a standard fluorometer and converted into molar quantities, based upon a previously established standard curve. The simplicity of AFC detection by the fluorometer was a key factor which quickened and simplified the procedures.
In the assay, 1 ug of the purified Taenia cysteine protease was added to a saturating amount of Z-Phe-Arg-AFC (4×10^−5 M) in assay buffer. The experiment was conducted in triplicate and repeated at least 5 times until we were certain that variability in AFC cleavage was not statistically significant.
Vmax was calculated for the cleavage of substrates by the purified target protease and Vmax was calculated for substrates cleaved by the crude mix protease using conventional kinetic modeling calculations already described in the art.

[4] = test system: Taenia crassiceps cysts; experiment: Scanning electron microscopy of surfaces of cysts removed from treated mice; type: in vivo
From the text: FIG. 9. Scanning electron microscopy of the surface of cysts removed from untreated mice versus cysts removed from treated mice. Magnifications are identical for both slides in each panel. panel A (4000×). […] No immune cells were seen on cysts removed from untreated mice. Panel B (25,000×). […] Microtriches in untreated cysts can be seen to be visibly longer. Visible anchors were also noted for the untreated cysts group, whereas these anchors were not observed in microtriches from treated cysts.
For example, we hypothesized that the cysteine protease was a key parasitic molecule to allow the cyst to evade the host immune response, by cleaving host antibodies. By inhibiting the Taenia cysteine protease with Z-LLY-FMK, we hypothesized that host immunoglobulin could now bind the parasites, and initiate immunological responses (e.g., complement via IgG2a) which would cause damage to the cyst wall. […] We identified macrophages, neutrophils, fibroblasts, and collagenous deposits on the cyst surfaces from treated mice, in comparison to their absence on cysts from untreated mice. General surface atrophy was also apparent. […] Breaks in the integrity of the cyst surface were also noted for the cysts removed from treated mice. […] Cysts removed from untreated mice were characterized by no immune cells, intact and longer microtriches, and homogeneity of the cyst surface.

## CC(C)C[C@H](NC(=O)[C@H](CC(C)C)NC(=O)[C@H](CC(C)C)NC(=O)OCc1ccccc1)C(=O)CF [Z-LLL-FMK, Z-Leu-Leu-Leu-fluoromethylketone] (Cbz-Leu-Leu-Leu-CH2F)
[1]
  % Prophylactic protection of BALB/c mice: 100%
[2]
  % Therapeutic protection of BALB/c mice: 60%

## CC(C)C[C@H](NC(=O)N1CCOCC1)C(=O)N[C@@H](Cc1ccc(O)cc1)C(=O)Nc1ccc2c(C(F)(F)F)cc(=O)oc2c1 [Mu-LY-AFC, Mu-Leu-Tyr-AFC] ({Morpholide-CO}-Leu-Tyr-{AFC})
[3]
  cleavage as substrate (Vmax): noncleavable

## CC(C)C[C@H](NC(=O)OCc1ccccc1)C(=O)N[C@@H](CC(C)C)C(=O)N[C@@H](Cc1ccc(O)cc1)C(=O)CF [Z-LLY-FMK, Z-Leu-Leu-Tyr-FMK] (Cbz-Leu-Leu-Tyr-CH2F)
[4]
  Immune cells observed by SEM on cyst surfaces: vigorous host immune response; also recorded: presence of adherent immune cells; also recorded: Intense

Source: US20030077653A1, “Method for the identification of active site protease inactivators” (The University of Georgia Research Foundation, Inc., priority 2000, published 2003)
